Test results as given in publication PMC5957549 (Nature, 2017).

Columns and labels:
Nicotinic Ach α1 = Nicotinic Ach α1 (Homo sapiens, UniProt P02708+P07510+Q07001); test: Radioligand displacement; assay type: binding; conditions: read-out: Inhib. (%)
Adrenergic β2 = Adrenergic β2 (Homo sapiens, UniProt P07550); test: Radioligand displacement; assay type: binding; conditions: read-out: Inhib. (%)
suite of 31 CNS targets = test: Binding across a suite of 31 CNS targets; conditions: 10 μM
Swiss Webster mice [1] = test: Conditioned place preference; assay type: in vivo; conditions: training with fenethylline 20 mg/kg
Prostanoid EP4 = Prostanoid EP4 (Homo sapiens, UniProt P35408); test: Radioligand displacement; assay type: binding; conditions: read-out: Inhib. (%)
[2] = assay type: in vivo, Swiss Webster mice; conditions: fenethylline 50 mg/kg vs amphetamine 5 mg/kg
Sigma σ1 = Sigma σ1 (Homo sapiens, UniProt Q99720); test: Radioligand displacement; assay type: binding; conditions: read-out: Inhib. (%)
Sequence of Sigma σ1 (Q99720 whole entry): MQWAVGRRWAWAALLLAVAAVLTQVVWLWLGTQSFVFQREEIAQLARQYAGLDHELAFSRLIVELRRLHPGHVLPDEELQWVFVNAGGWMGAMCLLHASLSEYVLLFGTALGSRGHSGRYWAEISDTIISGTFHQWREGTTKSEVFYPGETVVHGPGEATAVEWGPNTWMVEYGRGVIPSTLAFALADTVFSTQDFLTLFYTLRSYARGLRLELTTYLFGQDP

Adrenergic α1B = test: Radioligand displacement; assay type: binding; conditions: 10 μM fenethylline, average of two replicates
Muscarinic M3 = Muscarinic M3 (Homo sapiens, UniProt P20309); test: Radioligand displacement; assay type: binding; conditions: read-out: Inhib. (%)
Muscarinic M2 = Muscarinic M2 (Homo sapiens, UniProt P08172); test: Radioligand displacement; assay type: binding; conditions: read-out: Inhib. (%)
Sequence of Muscarinic M2 (P08172 whole entry): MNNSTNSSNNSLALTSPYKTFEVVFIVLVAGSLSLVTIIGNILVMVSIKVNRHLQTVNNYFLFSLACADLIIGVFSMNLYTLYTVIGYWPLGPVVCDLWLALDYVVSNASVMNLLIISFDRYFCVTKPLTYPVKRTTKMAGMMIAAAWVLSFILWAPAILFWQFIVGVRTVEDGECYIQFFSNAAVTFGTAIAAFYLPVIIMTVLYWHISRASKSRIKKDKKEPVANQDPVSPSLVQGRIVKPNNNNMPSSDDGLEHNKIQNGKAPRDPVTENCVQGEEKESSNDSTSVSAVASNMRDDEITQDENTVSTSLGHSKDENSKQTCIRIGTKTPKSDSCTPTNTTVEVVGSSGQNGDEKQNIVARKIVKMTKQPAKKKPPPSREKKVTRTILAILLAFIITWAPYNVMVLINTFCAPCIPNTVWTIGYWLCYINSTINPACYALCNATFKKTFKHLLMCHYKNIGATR

Adrenergic α1A = test: Radioligand displacement; assay type: binding; conditions: 10 μM fenethylline, average of two replicates
L-Type Ca Channel = test: Radioligand displacement; assay type: binding; conditions: 10 μM fenethylline, average of two replicates
GABAA – Site 2 = test: Radioligand displacement; assay type: binding; conditions: 10 μM fenethylline, average of two replicates
Glutamate – NMDA = test: Radioligand displacement; assay type: binding; conditions: 10 μM fenethylline, average of two replicates
AdenosineA2A = AdenosineA2A (Homo sapiens, UniProt P29274); test: Radioligand displacement; assay type: binding; conditions: read-out: Inhib. (%)
Sequence of AdenosineA2A (P29274 whole entry): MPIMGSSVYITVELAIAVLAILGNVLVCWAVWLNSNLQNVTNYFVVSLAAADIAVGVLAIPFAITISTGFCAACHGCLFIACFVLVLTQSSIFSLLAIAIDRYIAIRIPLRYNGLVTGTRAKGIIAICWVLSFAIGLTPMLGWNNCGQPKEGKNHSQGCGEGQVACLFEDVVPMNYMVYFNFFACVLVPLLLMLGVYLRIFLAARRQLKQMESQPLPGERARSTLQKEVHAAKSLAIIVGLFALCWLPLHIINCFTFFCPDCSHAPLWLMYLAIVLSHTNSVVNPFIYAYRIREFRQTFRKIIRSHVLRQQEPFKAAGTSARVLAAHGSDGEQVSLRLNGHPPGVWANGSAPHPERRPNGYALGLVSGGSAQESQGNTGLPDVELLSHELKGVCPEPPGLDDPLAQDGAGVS

Dopamine D2S = Dopamine D2S (Homo sapiens, UniProt P14416); test: Radioligand displacement; assay type: binding; conditions: read-out: Inhib. (%)
Nicotinic Ach = test: Radioligand displacement; assay type: binding; conditions: 10 μM fenethylline, average of two replicates
Phorbol Ester = test: Radioligand displacement; assay type: binding; conditions: 10 μM fenethylline, average of two replicates
Swiss Webster mice [3] = test: Open field hyperlocomotor activity assay; assay type: in vivo
Rolipram = test: Radioligand displacement; assay type: binding; conditions: 10 μM fenethylline, average of two replicates
Adrenergic α2A = Adrenergic α2A (Homo sapiens, UniProt P08913); test: Radioligand displacement; assay type: binding; conditions: read-out: Inhib. (%)
Adrenergic β1 = Adrenergic β1 (Homo sapiens, UniProt P08588); test: Radioligand displacement; assay type: binding; conditions: read-out: Inhib. (%)
Sequence of Adrenergic β1 (P08588 whole entry): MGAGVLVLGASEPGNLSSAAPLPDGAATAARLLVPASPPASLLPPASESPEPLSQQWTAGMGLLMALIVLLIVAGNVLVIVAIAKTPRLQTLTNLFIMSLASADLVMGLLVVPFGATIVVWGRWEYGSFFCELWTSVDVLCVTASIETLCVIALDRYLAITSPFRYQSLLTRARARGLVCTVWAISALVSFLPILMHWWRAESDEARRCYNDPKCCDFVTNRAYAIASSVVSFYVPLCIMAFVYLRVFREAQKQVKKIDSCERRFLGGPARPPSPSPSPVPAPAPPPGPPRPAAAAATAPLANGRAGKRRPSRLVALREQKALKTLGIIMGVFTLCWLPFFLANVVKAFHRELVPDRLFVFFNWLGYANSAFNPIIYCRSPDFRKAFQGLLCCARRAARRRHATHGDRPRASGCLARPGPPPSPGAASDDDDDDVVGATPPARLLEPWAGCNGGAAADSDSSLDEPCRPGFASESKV

Cannabinoid CB1 = Cannabinoid CB1 (Homo sapiens, UniProt P21554); test: Radioligand displacement; assay type: binding; conditions: read-out: Inhib. (%)
Sequence of Cannabinoid CB1 (P21554 whole entry): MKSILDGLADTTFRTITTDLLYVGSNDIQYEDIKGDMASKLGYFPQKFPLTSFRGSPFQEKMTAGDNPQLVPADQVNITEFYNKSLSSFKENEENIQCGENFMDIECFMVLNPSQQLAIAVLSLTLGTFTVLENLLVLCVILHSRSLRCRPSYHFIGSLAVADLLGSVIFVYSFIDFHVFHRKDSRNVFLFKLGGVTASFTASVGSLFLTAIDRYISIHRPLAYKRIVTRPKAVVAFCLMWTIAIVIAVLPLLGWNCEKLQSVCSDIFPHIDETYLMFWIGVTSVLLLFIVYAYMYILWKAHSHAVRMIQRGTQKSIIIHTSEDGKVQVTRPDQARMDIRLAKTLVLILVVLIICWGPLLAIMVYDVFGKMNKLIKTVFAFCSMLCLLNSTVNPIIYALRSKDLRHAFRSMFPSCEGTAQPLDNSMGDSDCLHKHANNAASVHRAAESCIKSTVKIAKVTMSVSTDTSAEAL

GABAA – Site 1 = test: Radioligand displacement; assay type: binding; conditions: 10 μM fenethylline, average of two replicates
Swiss Webster mice [4] = test: Elevated plus maze; assay type: in vivo; conditions: EPM; fenethylline 20 mg/kg
Norepi. Transporter = Norepi. Transporter (Homo sapiens, UniProt P23975); test: Radioligand displacement; assay type: binding; conditions: read-out: Inhib. (%)
Sequence of Norepi. Transporter (P23975 whole entry): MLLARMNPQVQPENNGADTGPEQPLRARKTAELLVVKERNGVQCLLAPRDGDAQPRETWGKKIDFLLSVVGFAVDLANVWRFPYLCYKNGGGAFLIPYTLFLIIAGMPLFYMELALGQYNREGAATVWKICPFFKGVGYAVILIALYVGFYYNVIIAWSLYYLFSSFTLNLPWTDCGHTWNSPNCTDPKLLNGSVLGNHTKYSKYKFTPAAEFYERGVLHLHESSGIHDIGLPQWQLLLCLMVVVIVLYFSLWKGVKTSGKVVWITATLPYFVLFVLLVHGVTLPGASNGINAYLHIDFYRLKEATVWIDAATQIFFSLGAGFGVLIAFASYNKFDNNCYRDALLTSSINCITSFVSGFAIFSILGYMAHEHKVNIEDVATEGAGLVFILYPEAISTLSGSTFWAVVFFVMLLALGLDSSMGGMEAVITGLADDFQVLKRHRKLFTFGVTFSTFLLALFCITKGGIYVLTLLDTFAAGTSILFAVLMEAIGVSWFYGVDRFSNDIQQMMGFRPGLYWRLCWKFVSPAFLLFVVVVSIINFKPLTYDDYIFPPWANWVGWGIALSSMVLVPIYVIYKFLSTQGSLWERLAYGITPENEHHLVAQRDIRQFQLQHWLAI

Adenosine A1 = Adenosine A1 (Homo sapiens, UniProt P30542); test: Radioligand displacement; assay type: binding; conditions: read-out: Inhib. (%)
Sequence of Adenosine A1 (P30542 whole entry): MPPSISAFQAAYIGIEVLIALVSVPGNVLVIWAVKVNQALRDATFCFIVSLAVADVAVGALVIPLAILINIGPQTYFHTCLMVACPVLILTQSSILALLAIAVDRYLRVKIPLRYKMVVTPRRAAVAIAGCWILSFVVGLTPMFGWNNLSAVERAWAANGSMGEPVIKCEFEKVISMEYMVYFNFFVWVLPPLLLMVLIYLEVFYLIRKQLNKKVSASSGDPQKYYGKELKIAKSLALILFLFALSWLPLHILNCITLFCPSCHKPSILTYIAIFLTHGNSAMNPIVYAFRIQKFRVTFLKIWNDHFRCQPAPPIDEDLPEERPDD

Sequence of Nicotinic Ach α1 (P02708 21-457): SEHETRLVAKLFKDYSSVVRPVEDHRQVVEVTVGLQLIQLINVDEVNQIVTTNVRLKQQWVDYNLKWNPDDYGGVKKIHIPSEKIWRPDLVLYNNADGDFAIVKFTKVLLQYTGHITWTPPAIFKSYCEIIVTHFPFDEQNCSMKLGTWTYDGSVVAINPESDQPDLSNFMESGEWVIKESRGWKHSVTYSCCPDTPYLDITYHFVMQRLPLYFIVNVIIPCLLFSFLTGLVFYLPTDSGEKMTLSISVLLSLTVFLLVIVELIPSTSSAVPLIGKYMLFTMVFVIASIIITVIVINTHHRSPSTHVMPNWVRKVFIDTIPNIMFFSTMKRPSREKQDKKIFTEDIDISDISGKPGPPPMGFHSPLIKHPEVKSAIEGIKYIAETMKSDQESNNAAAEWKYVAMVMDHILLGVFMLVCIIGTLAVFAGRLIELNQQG
Sequence of Nicotinic Ach α1 (P11230 24-501 partner): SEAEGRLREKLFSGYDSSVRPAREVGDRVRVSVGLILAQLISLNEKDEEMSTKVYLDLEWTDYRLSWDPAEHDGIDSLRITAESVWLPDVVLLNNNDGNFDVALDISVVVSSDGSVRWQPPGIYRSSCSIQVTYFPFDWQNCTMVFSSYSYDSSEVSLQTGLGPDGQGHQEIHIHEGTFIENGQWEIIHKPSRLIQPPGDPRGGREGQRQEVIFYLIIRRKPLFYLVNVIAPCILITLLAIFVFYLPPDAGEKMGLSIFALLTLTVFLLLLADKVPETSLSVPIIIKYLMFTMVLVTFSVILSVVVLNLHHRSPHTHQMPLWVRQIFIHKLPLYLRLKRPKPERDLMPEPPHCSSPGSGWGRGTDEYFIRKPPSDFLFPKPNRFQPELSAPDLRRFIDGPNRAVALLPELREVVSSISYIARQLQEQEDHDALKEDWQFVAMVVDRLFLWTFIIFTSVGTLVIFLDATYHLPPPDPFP
Sequence of Nicotinic Ach α1 (Q07001 22-517): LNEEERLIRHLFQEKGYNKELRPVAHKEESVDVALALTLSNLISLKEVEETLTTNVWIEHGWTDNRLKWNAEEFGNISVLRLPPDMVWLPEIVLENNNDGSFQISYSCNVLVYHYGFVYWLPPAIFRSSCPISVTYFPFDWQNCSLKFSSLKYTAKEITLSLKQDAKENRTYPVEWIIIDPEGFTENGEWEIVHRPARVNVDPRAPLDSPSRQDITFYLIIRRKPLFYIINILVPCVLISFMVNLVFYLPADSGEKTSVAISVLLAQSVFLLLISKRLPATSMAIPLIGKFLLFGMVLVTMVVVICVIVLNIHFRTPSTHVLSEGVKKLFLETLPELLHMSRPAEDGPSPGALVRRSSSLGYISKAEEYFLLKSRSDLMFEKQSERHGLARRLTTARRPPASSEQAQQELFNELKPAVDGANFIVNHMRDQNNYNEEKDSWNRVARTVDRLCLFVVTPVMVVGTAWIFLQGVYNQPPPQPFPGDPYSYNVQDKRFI
Sequence of Nicotinic Ach α1 (P07510 23-517): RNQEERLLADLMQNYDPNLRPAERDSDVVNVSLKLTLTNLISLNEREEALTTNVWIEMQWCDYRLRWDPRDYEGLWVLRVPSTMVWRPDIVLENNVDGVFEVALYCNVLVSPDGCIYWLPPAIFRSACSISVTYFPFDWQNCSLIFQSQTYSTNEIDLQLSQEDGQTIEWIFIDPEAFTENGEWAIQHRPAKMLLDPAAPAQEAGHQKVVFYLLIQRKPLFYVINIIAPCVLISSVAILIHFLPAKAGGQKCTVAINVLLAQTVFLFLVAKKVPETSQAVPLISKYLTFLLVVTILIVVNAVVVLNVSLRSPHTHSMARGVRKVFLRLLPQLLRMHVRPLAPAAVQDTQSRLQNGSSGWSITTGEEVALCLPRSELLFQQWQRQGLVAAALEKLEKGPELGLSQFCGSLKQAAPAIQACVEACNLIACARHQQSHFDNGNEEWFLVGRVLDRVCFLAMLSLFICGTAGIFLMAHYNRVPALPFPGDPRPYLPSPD

CC(Cc1ccccc1)NCCn1cnc2c1c(=O)n(C)c(=O)n2C (stereo not shown) [fenethylline, Fenethylline]
inhibition at 10 µM (Nicotinic Ach α1): 9% | inhibition at 10 µM (Adrenergic β2): 3% | binding across a suite of 31 CNS targets (suite of 31 CNS targets): little binding | induction of conditioned place preference (Swiss Webster mice [1]): induce CPP | inhibition at 10 µM (Prostanoid EP4): 3% | penetration of liberated amphetamine into brain tissue [2]: lags behind that of directly administered amphetamine | inhibition at 10 µM (Sigma σ1): 7% | Inhib. (%) (Adrenergic α1B): 16% | inhibition at 10 µM (Muscarinic M3): 2% | inhibition at 10 µM (Muscarinic M2): -6% | Inhib. (%) (Adrenergic α1A): 27% | Inhib. (%) (L-Type Ca Channel): 6% | Inhib. (%) (GABAA – Site 2): 5% | Inhib. (%) (Glutamate – NMDA): 10% | inhibition at 10 µM (AdenosineA2A): -5% | inhibition at 10 µM (Dopamine D2S): 1% | Inhib. (%) (Nicotinic Ach): 2% | Inhib. (%) (Phorbol Ester): 9% | onset of stimulant (hyperlocomotor) activity (Swiss Webster mice [3]; fenethylline 20 mg/kg vs amphetamine 2 mg/kg): more rapid than that of amphetamine alone | locomotor activity after drug in control animals (Swiss Webster mice [3]; open field, control (KLH) animals): clear dose-dependent increase | Inhib. (%) (Rolipram): 9% | inhibition at 10 µM (Adrenergic α2A): 16% | inhibition at 10 µM (Adrenergic β1): 9% | inhibition at 10 µM (Cannabinoid CB1): 16% | Inhib. (%) (GABAA – Site 1): 0% | time spent in open arms after drug in control animals (Swiss Webster mice [4]): reduced the time | inhibition at 10 µM (Norepi. Transporter): 10% | inhibition at 10 µM (Adenosine A1): 0%
